From PubChem BioAssay (NCI)
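GI50 is the concentration that inhibits growth by half. TGI: total growth inhibition.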

Assays:
Assay in all cases: DTP human tumour cell line panel, 384-well format
HS 578T breast = system: HS 578T breast
A498 renal = system: A498 renal
NCI-H226 lung = system: NCI-H226 lung
SN12C renal = system: SN12C renal
SW-620 colon = system: SW-620 colon
LOX IMVI melanoma = system: LOX IMVI melanoma
T-47D breast = system: T-47D breast
HOP-62 NSCLC = system: HOP-62 NSCLC
MDA-MB-231 breast = system: MDA-MB-231 breast
786-0 renal = system: 786-0 renal
M14 melanoma = system: M14 melanoma
CCRF-CEM leukemia = system: CCRF-CEM leukemia
SF-539 CNS = system: SF-539 CNS
K-562 leukemia = system: K-562 leukemia
HCT-116 colon = system: HCT-116 colon
SR leukemia = system: SR leukemia
SNB-75 CNS = system: SNB-75 CNS
ACHN renal = system: ACHN renal
SK-MEL-28 melanoma = system: SK-MEL-28 melanoma
HCC-2998 colon = system: HCC-2998 colon
NCI-H322M lung = system: NCI-H322M lung
HCT-15 colon = system: HCT-15 colon
CAKI-1 renal = system: CAKI-1 renal
SF-295 CNS = system: SF-295 CNS
OVCAR-8 ovarian = system: OVCAR-8 ovarian
NCI-H460 NSCLC = system: NCI-H460 NSCLC
NCI/ADR-RES ovarian = system: NCI/ADR-RES ovarian
MDA-MB-468 breast = system: MDA-MB-468 breast
MALME-3M melanoma = system: MALME-3M melanoma
NCI-H522 lung = system: NCI-H522 lung
SK-OV-3 ovarian = system: SK-OV-3 ovarian
SK-MEL-5 melanoma = system: SK-MEL-5 melanoma
KM12 colon = system: KM12 colon
OVCAR-3 ovarian = system: OVCAR-3 ovarian
RPMI-8226 leukemia = system: RPMI-8226 leukemia
PC-3 prostate = system: PC-3 prostate
HT29 colon = system: HT29 colon
MOLT-4 leukemia = system: MOLT-4 leukemia
RXF 393 renal = system: RXF 393 renal
NCI-H23 lung = system: NCI-H23 lung
UO-31 renal = system: UO-31 renal
EKVX NSCLC = system: EKVX NSCLC
UACC-257 melanoma = system: UACC-257 melanoma
UACC-62 melanoma = system: UACC-62 melanoma
DU-145 prostate = system: DU-145 prostate
SK-MEL-2 melanoma = system: SK-MEL-2 melanoma
MDA-MB-435 melanoma = system: MDA-MB-435 melanoma

Work on `C=CC(=O)N1CCN(CCCn2c(=O)c(-c3c(Cl)c(OC)cc(OC)c3Cl)cc3cnc(NC)nc32)CC1` yielded a GI50 (HS 578T breast) of 0.327 µM, a TGI (HS 578T breast) of 2.35 µM and a GI50 (A498 renal) of 0.462 µM. It also gave a TGI (A498 renal) of 4.69 µM, a TGI (NCI-H226 lung) of 11.8 µM and a GI50 (SN12C renal) of 2.36 µM. For the same compound, the TGI (SN12C renal) was 12.2 µM, the GI50 (SW-620 colon) was 3.22 µM and the TGI (SW-620 colon) was 9.31 µM. It also gave a GI50 (LOX IMVI melanoma) of 2.63 µM, a TGI (LOX IMVI melanoma) of 15.6 µM and a GI50 (T-47D breast) of 2.86 µM. The TGI (T-47D breast) was 16.1 µM, the GI50 (HOP-62 NSCLC) was 3.06 µM and the TGI (HOP-62 NSCLC) was 12.1 µM. It also gave a GI50 (MDA-MB-231 breast) of 3.94 µM, a TGI (MDA-MB-231 breast) of 14.9 µM and a GI50 ([…]-0 renal) of 2.38 µM. The TGI (786-0 renal) was 13.7 µM, the GI50 (M14 melanoma) was 2.11 µM and the TGI (M14 melanoma) was 16.1 µM. For the same compound, the GI50 (CCRF-CEM leukemia) was 1.51 µM, the TGI (CCRF-CEM leukemia) was 3.29 µM and the GI50 (SF-539 CNS) was 3.7 µM. It also gave a TGI (SF-539 CNS) of 16.4 µM, a GI50 (K-562 leukemia) of 5.67 µM and a TGI (K-562 leukemia) of 18.3 µM. It also gave a GI50 (HCT-116 colon) of 3.55 µM, a TGI (HCT-116 colon) of 14.7 µM and a GI50 (SR leukemia) of 1.29 µM. The TGI (SR leukemia) was 3.04 µM, the GI50 (SNB-75 CNS) was 0.211 µM and the TGI (SNB-75 CNS) was 4.88 µM. For the same compound, the GI50 (ACHN renal) was 0.975 µM, the TGI (ACHN renal) was 11.3 µM and the GI50 (SK-MEL-28 melanoma) was 15.1 µM. The TGI (SK-MEL-28 melanoma) was 39.5 µM, the GI50 (HCC-2998 colon) was 9.16 µM and the TGI (HCC-2998 colon) was 22 µM. For the same compound, the GI50 (NCI-H322M lung) was 5.16 µM, the TGI (NCI-H322M lung) was > 39.6 µM and the GI50 (HCT-15 colon) was 2.37 µM. It also gave a TGI (HCT-15 colon) of 14.9 µM, a GI50 (CAKI-1 renal) of 0.478 µM and a TGI (CAKI-1 renal) of 3.49 µM. For the same compound, the GI50 (SF-295 CNS) was 8.31 µM, the TGI (SF-295 CNS) was 38.1 µM and the GI50 (OVCAR-8 ovarian) was 5.9 µM. It also gave a TGI (OVCAR-8 ovarian) of 19.2 µM, a GI50 (NCI-H460 NSCLC) of 2.51 µM and a TGI (NCI-H460 NSCLC) of 12.7 µM. For the same compound, the GI50 (NCI/ADR-RES ovarian) was 7.93 µM, the TGI (NCI/ADR-RES ovarian) was 21.3 µM and the GI50 (MDA-MB-468 breast) was 0.95 µM. The TGI (MDA-MB-468 breast) was 2.68 µM, the GI50 (MALME-3M melanoma) was 1.92 µM and the TGI (MALME-3M melanoma) was 9.84 µM. The GI50 (NCI-H522 lung) was 2.66 µM, the TGI (NCI-H522 lung) was 11.8 µM and the GI50 (SK-OV-3 ovarian) was 1.1 µM. It also gave a TGI (SK-OV-3 ovarian) of 9.48 µM, a GI50 (SK-MEL-5 melanoma) of 2.35 µM and a TGI (SK-MEL-5 melanoma) of 13.1 µM. For the same compound, the GI50 (KM12 colon) was 6.06 µM, the TGI (KM12 colon) was 18.8 µM and the GI50 (OVCAR-3 ovarian) was 2.21 µM. The TGI (OVCAR-3 ovarian) was 13.6 µM, the GI50 (RPMI-8226 leukemia) was 0.759 µM and the TGI (RPMI-8226 leukemia) was 2.39 µM. It also gave a GI50 (PC-3 prostate) of 3.56 µM, a TGI (PC-3 prostate) of 12.4 µM and a GI50 (HT29 colon) of 4.61 µM. It also gave a TGI (HT29 colon) of 16.8 µM, a GI50 (MOLT-4 leukemia) of 0.689 µM and a TGI (MOLT-4 leukemia) of 1.96 µM. For the same compound, the GI50 (RXF 393 renal) was 0.665 µM, the TGI (RXF 393 renal) was 3.03 µM and the GI50 (NCI-H23 lung) was 3.72 µM. The TGI (NCI-H23 lung) was 15.3 µM, the GI50 (UO-31 renal) was 3.72 µM and the TGI (UO-31 renal) was 15.9 µM. For the same compound, the GI50 (EKVX NSCLC) was 5.95 µM, the TGI (EKVX NSCLC) was 19.6 µM and the GI50 (UACC-257 melanoma) was 4.44 µM. It also gave a TGI (UACC-257 melanoma) of 16 µM, a GI50 (UACC-62 melanoma) of 1.9 µM and a TGI (UACC-62 melanoma) of 11.8 µM. For the same compound, the GI50 (DU-145 prostate) was 4.02 µM, the TGI (DU-145 prostate) was 18.1 µM and the GI50 (SK-MEL-2 melanoma) was 1.7 µM. It also gave a TGI (SK-MEL-2 melanoma) of 5.09 µM, a GI50 (MDA-MB-435 melanoma) of 4.33 µM and a TGI (MDA-MB-435 melanoma) of 14.7 µM.
